Data from US20250388564A1, “METHODS OF MANUFACTURING PYRIDAZINONE COMPOUNDS” (Edgewise Therapeutics, Inc., priority 2022, published 2025).
Values after ≈ are worked out from the molar mass of the structure shown.

Experiment: Solubility of Compound IX in solvents (Table 1)
Format: physicochemical
Conditions: for solubility: organic solvent or mixture

SMILES: O=c1ccc(-c2cnc(OCC(F)(F)F)nc2)n[nH]1 [Compound IX, 6-[2-(2,2,2-trifluoroethoxy)pyrimidin-5-yl]-2,3-dihydropyridazin-3-one]
- solubility (1,4-dioxane, solvent 1,4-dioxane (entry 8)): 2900 µg/mL (≈ 10.7 mM)
- solubility (ACN, solvent ACN (entry 6)): 1500 µg/mL (≈ 5.51 mM)
- solubility (DCE, solvent DCE (entry 1)): 150 µg/mL (≈ 0.551 mM)
- solubility (DCM, solvent DCM (entry 17)): 300 µg/mL (≈ 1.1 mM)
- solubility (DMA, solvent DMA (entry 19)): 13000 µg/mL (≈ 47.8 mM)
- solubility (DME, solvent DME (entry 4)): 3260 µg/mL (≈ 12 mM)
- solubility (DME, solvent DME (entry 21)): 10000 µg/mL (≈ 36.7 mM)
- solubility (DMF, solvent DMF (entry 18)): 21000 µg/mL (≈ 77.2 mM)
- solubility (DMSO, solvent DMSO (entry 10)): 45000 µg/mL (≈ 165 mM)
- solubility (EA, solvent EA (entry 16)): 700 µg/mL (≈ 2.57 mM)
- solubility (EtOH, solvent EtOH (entry 12)): 1000 µg/mL (≈ 3.67 mM)
- solubility (MTBE, solvent MTBE (entry 15)): 100 µg/mL (≈ 0.367 mM)
- solubility (MeOH, solvent MeOH (entry 11)): 2500 µg/mL (≈ 9.18 mM)
- solubility (NMP, solvent NMP (entry 20)): 44000 µg/mL (≈ 162 mM)
- solubility (THF, solvent THF (entry 5)): 2730 µg/mL (≈ 10 mM)
- solubility (acetone, solvent Acetone (entry 2)): 1590 µg/mL (≈ 5.84 mM)
- solubility (i-PrOH, solvent i-PrOH (entry 13)): 500 µg/mL (≈ 1.84 mM)
- solubility (in words) (overall statement on Table 1): limited solubility
- solubility (t-BuOH, solvent t-BuOH (entry 14)): 100 µg/mL (≈ 0.367 mM)
- solubility (thietane 1,1-dioxide, solvent thietane 1,1-dioxide (entry 3)): 6350 µg/mL (≈ 23.3 mM)
